{"source": "patent US11426350B1", "about": "“Reducing the environmental impact of farming using biochar” (Carbon Technology Holdings, LLC, priority 2014, dated 2022)", "origin": "cited, not measured here", "tested_on": "E. coli O157:H7"}
{"substance": "Lactobacillus rhamnosus GG", "values": [{"measurement": "E. coli O157:H7-induced lesions in Caco-2 cells", "value": "prevent"}]}
